This is an account of results in PubChem BioAssay (NCI).

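Exposure lasted 48 hours, with cells grown in 96-well plates and compounds tested at five concentrations. TGI marks complete inhibition of growth.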 Where a SMILES comes first, the peptide text is derived from it. [ ]: non-standard residue; d: D form. The star is where a group is joined. ξ: configuration not given here. NMeF = CN[C@@H](Cc1ccccc1)C(=O)O; NMeV = CN[C@H](C(=O)O)C(C)C; ξNMeV = CNC(C(=O)O)C(C)C; Boc = CC(C)(C)OC(=O)*; OBn = c1ccc(CO*)cc1 Some results are limits rather than exact numbers.

Experiment in all cases: NCI tumour cell line growth inhibition, 48 h
For experiment [1], the system named is M14 melanoma.
The test system of experiment [2] is OVCAR-3 ovarian.
In experiment [3] the test system is LOX IMVI melanoma.
Experiment [4] has as its system HCT-15 colon.
Experiment [5] concerns UACC-62 melanoma.
The subject of experiment [6] is HCC-2998 colon.
In experiment [7] the test system is SK-MEL-2 melanoma.
Experiment [8] deals with MDA-MB-435.
The subject of experiment [9] is T-47D breast.
Experiment [10] has as its system HS 578T breast.

In the case of `O=C1Nc2ccc(Cl)c(I)c2C1=O`, the TGI in experiment [1] turned out to be 31.1 µM; in experiment [2], 52.3 µM; in experiment [3], 35.1 µM; in experiment [4], 43.7 µM; in experiment [5] it was 34.8 µM; in [6], 27.7 µM. This compound also returned a TGI in experiment [7] of 34.2 µM.

`CC(=O)[C@@]1(c2ccccc2)CC2(CCN(C)CC2)O[C@H]1C`: the TGI in experiment [1], in [2], in experiment [3], in [4], in [8] and in experiment [9] was over 100 µM throughout.

`CCCCCCCCCCCCCS(=O)(=O)NCC(N)=O`: the TGI in experiment [1], in [2], in [3], in experiment [4], in experiment [5] and in experiment [6] was over 100 µM in each case. In addition, the TGI in experiment [7] is over 100 µM.

On to `CSC(C1c2ccccc2N(C)c2[nH]c(=O)n(C)c(=O)c21)S(=O)(=O)c1ccc(C)cc1` (centres undefined), for which the TGI in experiment [2], in [3], in experiment [4], in experiment [5], in experiment [6] and in experiment [7] was over 100 µM each time.

Consider `CC#CCCCC1(C)CCNC1=S` (centres undefined), for which the TGI in experiment [1], in experiment [2], in [3], in [10], in [4] and in experiment [8] was over 10 µM each time. Moreover, the TGI in experiment [6] and in experiment [7] was over 10 µM throughout.

For the compound `Cc1ccc(S(=O)(=O)NNS(C)(=O)=O)cc1`, the TGI in experiment [1], in [2], in [3], in experiment [4], in [5] and in experiment [6] was over 100 µM throughout. The same compound had a TGI in [7] of over 100 µM.

As to `COC(=O)C12Oc3ccc(-c4ccc5c(c4O)C(O)=C4C(=O)CC(C)C(O)C4(C(=O)OC)O5)c(O)c3C(O)=C1C(=O)CC(C)C2O` (centres undefined), the TGI was 0.89 µM in experiment [1]; 3.86 µM in experiment [10]; over 100 µM in experiment [4]; 1.96 µM in experiment [8]; over 29.1 µM in experiment [9]; 1.37 µM in [5]. The compound also yielded a TGI in experiment [7] of 1.02 µM.

Regarding `Cc1ccc(Nc2nc(-c3ccc(-c4ccc([N+](=O)[O-])cc4)o3)cs2)cc1`, the TGI in experiment [1] is over 100 µM; in experiment [2] it was over 100 µM; in experiment [3] it was over 100 µM; in [4], over 100 µM; in experiment [5] it was over 100 µM; in [6], 97 µM. The compound further returned a TGI in [7] of over 100 µM.

On to `COc1cc2c[n+](C)c3c4cc(OC)c(OCc5ccccc5)cc4c(OCc4ccccc4)cc3c2cc1OC`, for which the TGI in experiment [1] was 21.6 µM; in experiment [2] it was 10.8 µM; in [3], 18 µM; in experiment [4] it was over 100 µM; in experiment [8], 10.5 µM; in [9] it was 21.6 µM. Moreover, the figures for the TGI in experiment [5], in experiment [6] and in [7] were 10.4 µM, 32.4 µM and 6.29 µM, respectively.

Regarding `CC(C)C(C(=O)N(C)[C@H](C(=O)N1CCC[C@H]1C(=O)N(C)[C@@H](Cc1ccccc1)C(=O)OCc1ccccc1)C(C)C)N(C)C(=O)[C@@H](NC(=O)OC(C)(C)C)C(C)C` (some centres undefined) (Boc-V[ξNMeV][NMeV]P[NMeF]-OBn), the TGI in experiment [1] is over 100 µM; in [2] it was over 100 µM; in experiment [3], over 31.6 µM; in experiment [4] it was over 31.6 µM; in experiment [5], over 31.6 µM; in experiment [7] it was over 31.6 µM.

Consider `C=CCOC(=O)Cn1ccc(=O)[nH]c1=O`, for which the TGI in experiment [1], in [3], in [10], in experiment [4], in [9] and in experiment [5] was over 100 µM throughout. In addition, the TGI in [6] and in experiment [7] was over 100 µM throughout.

Take `CC(=O)OCC1OC(N=[N+]=[N-])C(OC(C)=O)C(OC(C)=O)C1OC1OC(COC(C)=O)C(OC(C)=O)C(OC(C)=O)C1OC(C)=O` (centres undefined): the TGI in [1], in [2], in experiment [3], in experiment [4], in [5] and in experiment [6] was over 100 µM throughout. In [7], this compound had a TGI of over 100 µM.

Take `CCN(CC)c1c(C)nnn1C1OC(COC(C)=O)C(OC(C)=O)C(OC(C)=O)C1OC(C)=O` (centres undefined): the TGI in experiment [1], in experiment [2], in experiment [4], in experiment [5] and in experiment [6] was over 100 µM in each case.

Regarding `CC#COS(=O)(=O)c1ccc(C)cc1`, the TGI in experiment [1], in [2], in [3], in experiment [4], in experiment [5] and in experiment [6] was over 100 µM in each case. Besides, the TGI in experiment [7] was over 100 µM.

Consider `COc1ccc([C@H]2CC3C(=O)N(c4ccc(OC)cc4)C(=O)C3c3[nH]c4ccccc4c32)cc1` (some centres undefined), for which the TGI in [1], in [2], in experiment [3], in experiment [4], in experiment [5] and in experiment [6] was over 100 µM each time. Also, the TGI in [7] is over 100 µM.

In the case of `CC(=O)Nc1ccc(/C=c2\sc3nnc(-c4cccnc4)n3c2=O)cc1`, the TGI in experiment [1] was found to be 39.2 µM; in experiment [2] it was 34 µM; in experiment [3], 30.7 µM; in [4], 35.9 µM; in [5], 27.7 µM; in experiment [6], 35.8 µM. Moreover, the TGI in [7] was found to be 46.4 µM.

In the case of `Cc1[nH]c2nccn2c(=O)c1CCO`, the TGI in experiment [1], in [2], in [3], in experiment [10], in [4] and in [8] was over 10 µM in each case. In addition, the TGI in experiment [9] and in experiment [5] was over 10 µM in each case.
